Data from article PMC3071440 (Journal of medicinal chemistry, 2010).

Columns and labels:
[1] = rat, oral 10 mg/kg; cited from earlier work
[2] = In vivo PK in rats following oral administration; conditions: rat, oral 10 mg/kg, harvested at or near Tmax

Q: Which “brain levels following oral dosing” value [1] does the source give for `Cc1c(OCc2cccc(-c3ccc(C(=O)O)cc3)c2)cc2c(c1C)C(=O)C(C1CCCC1)C2` (centres unmarked) [Compound 1, 3′-((2-cyclopentyl-6,7-dimethyl-1-oxo-2,3-dihydro-1H-inden-5-yloxy)methyl)biphenyl-4-carboxylic acid] here?
A: below the limit of quantitation

Q: With `O=C(O)c1cc(-c2cccc(COc3ccc4c(c3)CN(C3CCCC3)C4=O)c2)ccc1Cl` [Compound 8a, 4-Chloro-3′-((2-cyclopentyl-1-oxoisoindolin-5-yloxy)-methyl)biphenyl-3-carboxylic acid] as the compound, how does the Brain level [2] read?
A: 3.8 ± 1.2 µM
